Calls of active or inactive are those of the source. The calls are words filed in the database; no cut-off is given here.
Assays:
[1] = Modulation of gamma-secretase-mediated cleavage of human APP expressed in CHO cells with human presenilin-1 assessed as activation of amyloid beta38 production after 24 hrs by ELISA; type: cell-based
[2] = molecular target: T1, Peroxisome proliferator-activated receptor alpha (Homo sapiens) (UniProt Q07869); assay: Agonist activity at human PPARalpha-LBD expressed in COS7 cells co-transfected with Gal4 at 10 uM by luciferase based transactivation assay; type: functional, cell-based; settings: COS-7
T1 sequence (whole entry): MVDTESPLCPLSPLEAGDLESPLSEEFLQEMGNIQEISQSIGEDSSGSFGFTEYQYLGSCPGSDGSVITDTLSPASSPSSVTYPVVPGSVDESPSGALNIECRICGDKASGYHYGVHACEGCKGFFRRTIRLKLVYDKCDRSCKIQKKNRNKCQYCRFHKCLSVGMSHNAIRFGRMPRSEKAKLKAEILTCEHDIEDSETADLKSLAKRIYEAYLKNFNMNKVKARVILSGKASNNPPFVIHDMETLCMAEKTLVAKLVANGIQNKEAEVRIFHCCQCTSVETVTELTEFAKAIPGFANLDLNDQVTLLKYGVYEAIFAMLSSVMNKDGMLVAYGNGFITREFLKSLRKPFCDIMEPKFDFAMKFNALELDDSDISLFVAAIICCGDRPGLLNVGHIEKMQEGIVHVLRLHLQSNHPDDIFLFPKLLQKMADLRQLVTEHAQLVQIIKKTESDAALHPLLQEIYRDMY

[3] = molecular target: T2, Prostaglandin G/H synthase 2 (Homo sapiens) (UniProt P35354); assay: Inhibition of human recombinant COX2 assessed as residual activity at 10 uM after 5 mins
T2 sequence (whole entry): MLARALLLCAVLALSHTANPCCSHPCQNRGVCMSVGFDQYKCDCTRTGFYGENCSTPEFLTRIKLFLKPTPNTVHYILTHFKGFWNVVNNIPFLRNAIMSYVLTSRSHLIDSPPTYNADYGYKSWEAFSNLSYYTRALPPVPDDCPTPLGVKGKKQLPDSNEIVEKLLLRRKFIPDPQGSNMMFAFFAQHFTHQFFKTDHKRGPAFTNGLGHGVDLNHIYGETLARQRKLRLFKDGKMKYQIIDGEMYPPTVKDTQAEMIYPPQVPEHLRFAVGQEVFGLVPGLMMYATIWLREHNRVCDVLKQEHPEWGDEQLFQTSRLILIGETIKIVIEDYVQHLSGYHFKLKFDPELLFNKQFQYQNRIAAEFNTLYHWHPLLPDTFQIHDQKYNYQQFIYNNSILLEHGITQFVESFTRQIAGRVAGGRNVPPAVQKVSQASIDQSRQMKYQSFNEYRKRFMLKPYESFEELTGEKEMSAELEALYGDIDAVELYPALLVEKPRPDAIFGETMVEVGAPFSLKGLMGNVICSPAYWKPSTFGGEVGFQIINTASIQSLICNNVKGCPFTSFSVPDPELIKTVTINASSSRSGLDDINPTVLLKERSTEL

[4] = molecular target: T3, Peroxisome proliferator-activated receptor delta (Homo sapiens) (UniProt Q03181); assay: Agonist activity at human PPARdelta-LBD expressed in COS7 cells co-transfected with Gal4 at 10 uM by luciferase based transactivation assay; type: functional, cell-based; settings: COS-7
T3 sequence (whole entry): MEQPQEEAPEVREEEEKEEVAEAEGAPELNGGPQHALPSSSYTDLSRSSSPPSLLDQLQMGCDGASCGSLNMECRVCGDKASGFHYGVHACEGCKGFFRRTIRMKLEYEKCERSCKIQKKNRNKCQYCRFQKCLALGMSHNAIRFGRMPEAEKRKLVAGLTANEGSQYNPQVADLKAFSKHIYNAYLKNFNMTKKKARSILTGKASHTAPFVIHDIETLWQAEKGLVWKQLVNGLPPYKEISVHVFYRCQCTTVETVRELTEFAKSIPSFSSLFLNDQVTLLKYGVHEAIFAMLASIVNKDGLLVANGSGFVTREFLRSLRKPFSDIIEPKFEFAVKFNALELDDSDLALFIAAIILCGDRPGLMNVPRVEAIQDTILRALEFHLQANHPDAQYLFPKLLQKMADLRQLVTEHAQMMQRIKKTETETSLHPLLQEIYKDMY

[5] = cells; settings: CHO, 24 h
Description: Modulation of gamma-secretase-mediated cleavage of human APP expressed in CHO cells with human presenilin-1 assessed as inhibition of amyloid beta42 production after 24 hrs by ELISA

[6] = system: CHO; assay: Cytotoxicity against CHO cells at 60 uM after 24 hrs by Alamar blue assay; type: cell-based, Cricetulus griseus; settings: chinese hamster
[7] = molecular target: T4, Prostaglandin G/H synthase 1 (Ovis aries) (UniProt P05979); assay: Inhibition of ovine COX1 assessed as residual activity at 10 uM after 5 mins
T4 sequence (whole entry): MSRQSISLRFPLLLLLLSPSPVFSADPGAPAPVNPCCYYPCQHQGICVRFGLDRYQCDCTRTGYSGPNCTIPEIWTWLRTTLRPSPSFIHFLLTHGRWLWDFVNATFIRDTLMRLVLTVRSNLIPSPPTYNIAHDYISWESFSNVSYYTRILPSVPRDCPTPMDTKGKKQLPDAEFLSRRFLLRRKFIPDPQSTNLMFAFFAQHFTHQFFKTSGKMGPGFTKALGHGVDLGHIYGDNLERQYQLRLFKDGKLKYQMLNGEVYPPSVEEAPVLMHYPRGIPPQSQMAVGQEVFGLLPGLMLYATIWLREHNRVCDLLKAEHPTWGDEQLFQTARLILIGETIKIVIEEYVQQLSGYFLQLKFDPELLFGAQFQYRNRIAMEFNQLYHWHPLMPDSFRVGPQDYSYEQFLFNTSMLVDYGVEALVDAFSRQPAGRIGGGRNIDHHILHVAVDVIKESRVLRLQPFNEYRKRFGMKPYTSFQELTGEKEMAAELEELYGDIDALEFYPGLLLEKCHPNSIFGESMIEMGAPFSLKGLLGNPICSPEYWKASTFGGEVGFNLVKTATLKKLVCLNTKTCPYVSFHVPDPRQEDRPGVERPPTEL

[8] = molecular target: T5, Peroxisome proliferator-activated receptor gamma (Homo sapiens) (UniProt P37231); assay: Agonist activity at human PPARgamma-LBD expressed in COS7 cells co-transfected with Gal4 at 10 uM by luciferase based transactivation assay; settings: COS-7
T5 sequence (whole entry): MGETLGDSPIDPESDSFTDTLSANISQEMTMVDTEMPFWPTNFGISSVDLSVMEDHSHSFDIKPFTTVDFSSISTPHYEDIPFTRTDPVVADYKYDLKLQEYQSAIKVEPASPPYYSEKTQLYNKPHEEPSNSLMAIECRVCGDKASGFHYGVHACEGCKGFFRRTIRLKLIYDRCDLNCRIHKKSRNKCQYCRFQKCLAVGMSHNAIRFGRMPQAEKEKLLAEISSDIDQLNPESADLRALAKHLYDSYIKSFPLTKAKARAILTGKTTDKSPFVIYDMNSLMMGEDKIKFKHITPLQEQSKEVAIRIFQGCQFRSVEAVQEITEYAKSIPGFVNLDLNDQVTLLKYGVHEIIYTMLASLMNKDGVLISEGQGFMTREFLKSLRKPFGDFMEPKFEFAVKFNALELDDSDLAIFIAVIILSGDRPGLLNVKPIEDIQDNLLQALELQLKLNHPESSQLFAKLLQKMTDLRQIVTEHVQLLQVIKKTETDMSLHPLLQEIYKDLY

[9] = molecular target: T5, Peroxisome proliferator-activated receptor gamma (Homo sapiens); assay: Agonist activity at human PPARgamma-LBD expressed in COS7 cells co-transfected with Gal4 at 20 uM by luciferase based transactivation assay; type: functional, cell-based; settings: COS-7
[10] = molecular target: T6, Prostaglandin G/H synthase 1 (Ovis aries, UniProt P05979)
T6 sequence (P05979 whole entry): T4 sequence (whole entry)
Description: Inhibition of ovine COX1 after 5 mins

[11] = molecular target: T7, Peroxisome proliferator-activated receptor gamma (Homo sapiens, UniProt P37231); assay: Agonist activity at human PPARgamma-LBD expressed in COS7 cells co-transfected with Gal4 by luciferase based transactivation assay; type: functional, cell-based, COS-7
T7 sequence (P37231 whole entry): T5 sequence (whole entry)

[12] = molecular target: T5, Peroxisome proliferator-activated receptor gamma (Homo sapiens); assay: Agonist activity at human PPARgamma-LBD expressed in COS7 cells co-transfected with Gal4 by luciferase based transactivation assay relative to pioglitazone; type: functional, cell-based; settings: COS-7
[13] = system: CHO; assay: Modulation of gamma-secretase-mediated notch signaling expressed in CHO cells transfected with Gal4-DNA-binding/VP16 transactivation domain assessed as reduction of reporter activity at 5 to 40 uM after 24 hrs; type: cell-based
[14] = molecular target: T5, Peroxisome proliferator-activated receptor gamma (Homo sapiens); assay: Agonist activity at human PPARgamma-LBD expressed in COS7 cells co-transfected with Gal4 at 10 uM by luciferase based transactivation assay; type: functional, cell-based; settings: COS-7
[15] = system: CHO; assay: Modulation of gamma-secretase-mediated notch signaling expressed in CHO cells transfected with Gal4-DNA-binding/VP16 transactivation domain assessed as reduction of reporter activity at 0.5 uM after 24 hrs; type: cell-based
[16] = molecular target: T5, Peroxisome proliferator-activated receptor gamma (Homo sapiens); assay: Agonist activity at human PPARgamma-LBD expressed in COS7 cells co-transfected with Gal4 at 6 uM by luciferase based transactivation assay; type: functional, cell-based; settings: COS-7
[17] = molecular target: T6, Prostaglandin G/H synthase 1; remark: listed apart in the source
Description: Inhibition of ovine COX1 after 5 mins

| Compound | EC50 [1] [µM] | Activity [2] | Activity [3] [%] | Activity [4] | IC50 [5] [µM] | Activity [6] | Activity [7] [%] | Activity [8] | Activity [9] [%] | IC50 [10] [µM] | EC50 [11] [µM] | Emax [12] [%] | Activity [13] | Activity [14] [%] | Activity [15] | Activity [16] [%] | IC50 [17] |
| --- | --- | --- | --- | --- | --- | --- | --- | --- | --- | --- | --- | --- | --- | --- | --- | --- | --- |
| CCCCC(Sc1nc(OCCC2CCCCCC2)cc(OCCC2CCCCCC2)n1)C(=O)O (centres undefined) | 1.9 | inactive | 50.1 | inactive | 11.3 | Non-toxic | 56.1 | inactive | – | – | – | – | – | – | – | – | – |
| CCCCC(Sc1nc(OCc2ccccc2)cc(OCc2ccccc2)n1)C(=O)O (centres undefined) | 24.2 | inactive | 61.6 | inactive | 25.2 | Non-toxic | 88.9 | – | 31 | – | – | – | – | – | – | – | – |
| CCCCC(Sc1nc(OCCc2ccccc2)cc(OCCc2ccccc2)n1)C(=O)O (centres undefined) | 11.3 | inactive | 90.9 | inactive | 22.8 | Non-toxic | 64.2 | – | – | 18.7 | 8.3 | 61 | – | – | – | – | – |
| CCCCC(Sc1nc(OCCC2CCCCC2)cc(OCCC2CCCCC2)n1)C(=O)O (centres undefined) | 4.6 | inactive | 49.5 | inactive | 5.1 | Non-toxic | 52.7 | – | – | 13.4 | 6.6 | 71 | inactive | – | – | – | – |
| CCCC[C@@H](Sc1nc(OCCc2ccccc2)cc(OCCc2ccccc2)n1)C(=O)O | 8.4 | inactive | 98.5 | inactive | 21.5 | Non-toxic | 73.9 | – | – | – | – | – | – | 22 | – | – | – |
| CCCCC(Sc1nc(OCCc2ccc(OC)cc2)cc(OCCc2ccc(OC)cc2)n1)C(=O)O (centres undefined) | 6.2 | inactive | 94.6 | inactive | 19.3 | Non-toxic | 72.8 | – | – | – | – | – | – | 23 | – | – | – |
| CC(C)C[C@H](NC(=O)[C@H](Cc1ccccc1)C[C@@H](O)[C@H](Cc1ccccc1)NC(=O)OC(C)(C)C)C(=O)N[C@@H](Cc1ccccc1)C(N)=O | – | – | – | – | – | – | – | – | – | – | – | – | – | – | Active | – | – |
| CCCCC(Sc1nc(OCCc2ccc([N+](=O)[O-])cc2)cc(OCCc2ccc([N+](=O)[O-])cc2)n1)C(=O)O (centres undefined) | – | inactive | 91.6 | inactive | 31.2 | Non-toxic | 82.1 | – | – | – | – | – | – | – | – | 33 | – |
| O=C(O)C(Sc1nc(OCCc2ccccc2)cc(OCCc2ccccc2)n1)c1ccccc1 (centres undefined) | 12.8 | inactive | 86 | inactive | 29.3 | Non-toxic | 72.2 | inactive | – | – | – | – | – | – | – | – | – |
| CCCCC(Sc1nc(OCCc2ccsc2)cc(OCCc2ccsc2)n1)C(=O)O (centres undefined) | 17.5 | inactive | 102 | inactive | 37.7 | Non-toxic | 76.6 | – | 32 | – | – | – | – | – | – | – | – |
| C[C@@H](C(=O)O)c1ccc(-c2ccccc2)c(F)c1 [TARENFLURBIL] | – | – | – | – | 305 | – | – | – | – | – | – | – | – | – | – | – | Not Active |

Reference: ChEMBL document CHEMBL1177708, “Design, synthesis, and biological evaluation of a novel class of gamma-secretase modulators with PPARgamma activity” (J Med Chem, 2010)
